Experimental data taken from patent US20200000969A1, “HYALURONIC ACID COMPOSITIONS INCLUDING MEPIVACAINE” (LABORATOIRES VIVACY, priority 2013, published 2020).

Assays:
[1] = Release kinetics of local anesthetic from hyaluronic acid gel by dialysis, UV-visible spectrophotometry; assay type: physicochemical; conditions: HA 3×10^6 Da, X=0.12, 20 mg/g; for mass percentage of local anesthetic in the hyaluronic acid gel: initial 3 mg/g, 37° C., physiological saline
Experimental: The release kinetics were, however, studied at 37° C. in physiological saline medium. Monitoring by UV-visible spectrophotometry is performed to assay the local anesthetic present in the gel.

[2] = cited from earlier work

release kinetics from the hyaluronic acid gel (FIG. 1), lidocaine versus mepivacaine ([1]; 3 mg/g, dialysis at 37° C. in physiological saline): comparable
mass percentage of local anesthetic in the hyaluronic acid gel ([1]; dialysis time 0 h): 0.290 mass %
mass percentage of local anesthetic in the hyaluronic acid gel ([1]; dialysis time 1.5 h): 0.133 mass %
mass percentage of local anesthetic in the hyaluronic acid gel ([1]; dialysis time 5 h): 0.100 mass %
mass percentage of local anesthetic in the hyaluronic acid gel ([1]; dialysis time 7 h): 0.098 mass %
mass percentage of local anesthetic in the hyaluronic acid gel ([1]; dialysis time 23 h): 0.086 mass %
mass percentage of local anesthetic in the hyaluronic acid gel ([1]; dialysis time 48 h): 0.077 mass %
mass percentage of local anesthetic in the hyaluronic acid gel ([1]; dialysis time 72 h): 0.075 mass %
SMILES: Cc1cccc(C)c1NC(=O)C1CCCCN1C (stereo not drawn) [Mepivacaine, mepivacaine]
pKa [2]: 7.7
